{"source": "paper PMC4703387", "about": "“Identification of the Calmodulin-Binding Domains of Fas Death Receptor” (PLoS ONE, 2016)", "key": {"[1]": {"biological_target": "T1, Ca^2+/CaM (Homo sapiens, UniProt P0DP23)", "T1 construct": "made in house", "test": "Isothermal titration calorimetry (ITC), Ca^2+/CaM titrated into peptide", "type": "binding", "procedure": "Thermodynamic parameters of Ca^2+/CaM binding to Fas-Pep1 and Fas-Pep2 peptides were determined using an Auto-iTC200 microcalorimeter (Malvern Instruments). […] Heat of reaction of Ca^2+/CaM was measured over 19 injections at 25°C for Fas-Pep1 or 35°C for Fas-Pep2. Heat of dilution was measured by titrating Ca^2+/CaM into buffer. Data analysis was performed using the Microcal Origin package (ver. 8.1). Baseline corrections were performed by subtracting heat of dilution from the raw Ca^2+/CaM-peptide titration data. Binding curves were analyzed and dissociation constants (Kd) were determined by nonlinear least-square fitting of the baseline-corrected data. The formula used to fit the data as one binding site is: ΔQ(i)=Q(i)+(dVi/Vo)[(Q(i)+Q(i−1))/2]–Q(i–1) where ΔQ(i) is the heat released at i^th injection, Q(i) is the total heat content of the solution, dVi is injection volume, and Vo is total volume. Three replicate titration experiments were typically performed for each peptide.\nAlthough it is recognized that the most frequent mechanism of CaM binding to target proteins involves the hydrophobic surfaces on the N- and C-terminal lobes,[23] electrostatic interactions also contribute to the formation and stabilization of CaM-protein complexes since CaM is acidic and CaM-binding motifs are often basic.[44, 45] The thermodynamic parameters of binding and the relative contribution of hydrophobic vs. electrostatic factors are often assessed by ITC methods, yielding various parameters such as dissociation constant (Kd), stoichiometry (n), enthalpy change (ΔH°) and entropy change (ΔS°). The thermodynamic parameters of Ca^2+/CaM binding to Fas-Pep1 and Fas-Pep2 were assessed by ITC."}, "[2]": {"biological_target": "T2, Ca^2+/CaM-C (Homo sapiens, UniProt P0DP23)", "T2 construct": "^15N-labled samples of the isolated Ca^2+/CaM-N and Ca^2+/CaM-C domains; made in house", "test": "NMR titration (2D 1H-15N HSQC) of isolated C-terminal lobe", "type": "binding", "conditions": "1H-15N HSQC titration", "procedure": "NMR data were collected at 35°C on a Bruker Avance II (700 MHz ^1H) spectrometer equipped with a cryogenic triple-resonance probe, processed with NMRPIPE [35] and analyzed with NMRVIEW [36] or CCPN Analysis. […] For signal assignments of the complexes, ^13C-, ^15N-, or ^13C-/^15N-labeled Ca^2+/CaM at ~400–500 μM was mixed with unlabeled Fas-Pep1 (in 100% DMSO-d6) or Fas-Pep2 at 1.5:1 peptide:Ca^2+/CaM. […] The backbone atom resonances of Ca^2+/CaM complexes with Fas-Pep1 and Fas-Pep2 were assigned using HNCA, HN(CO)CA, HNCACB, HNCO, HN(CO)CACB and ^15N-edited NOESY-HSQC and TOCSY-HSQC experiments. These experiments have been also collected on ^15N-, or ^13C-/^15N-labeled Fas-Pep2 in complex with unlabeled Ca^2+/CaM to confirm the α-helical character of Fas-Pep2 when bound to Ca^2+/CaM. […] Combined ^1H-^15N chemical shift changes were calculated as ΔδHN = [(ΔδH)^2+(ΔδN/5)^2]^1/2, where ΔδH and ΔδN are the ^1H and ^15N chemical shift changes, respectively. Kd values were calculated by non-linear least-square fitting algorithm in Origin software (OriginLab, Northampton, MA) using the equation: ΔδHN=ΔδHN^max((Kd+L0+P0)−((Kd+L0+P0)^2−4*P0*L0)^0.5)/(2*P0) where ΔδHN^max is the chemical shift change between complex and free protein, L0 total concentration of ligand, and P0 total concentration of protein. […]"}, "[3]": {"conditions": "as Kd (ITC), 25°C Fas-Pep1, 35°C Fas-Pep2"}}, "note": "Where no end group is shown, it is not given here."}
{"sequence": "VQDTAEQKVQLLRNWHQLHGKKEAYDTLIKDLKKANLC [Fas-Pep2]", "values": [{"measurement": "thermodynamic driving force of binding", "setting": "[1]; ITC", "result": "enthalpically driven"}, {"measurement": "n (stoichiometry, ITC)", "setting": "[1]; as Kd (ITC)", "result": 0.9}, {"measurement": "ΔH°", "setting": "[1]; [3]", "result": -14.2, "unit": "kcal/mol"}, {"measurement": "ΔS°", "setting": "[1]; [3]", "result": -18.8, "unit": "cal/mol/K"}, {"measurement": "CSPs on Ca^2+/CaM-C", "setting": "[2]", "result": "significant CSPs for numerous residues"}]}
